# According to patent publication US20220168309A1 (F-STAR THERAPEUTICS, INC., priority 2019, published 2022):
# Molecular target: STING (Homo sapiens, UniProt Q86WV6)
# Test: STING antagonist activity, cell-based ISG54 promoter-reporter luciferase measurement of IRF activity (THP-1 dual / RAW-ISG cells)
# Conditions: Antagonist Activity of Exemplary Compounds; cell line and agonist not given
# Protocol: THP-1 dual cells (InvivoGen) were cultured under 5% CO2 at 37° C. in RPMI containing 10% fetal bovine serum (FBS), 100 IU mL-1 penicillin and 100 μg mL-1 streptomycin. RAW-ISG cells (InvivoGen) were cultured under 5% CO2 at 37° C. in DMEM containing 10% fetal bovine serum (FBS), 100 IU mL-1 penicillin and 100 μg mL-1 streptomycin. THP-1 dual cells were seeded into the 96 well assay plate on the day of assay whereas RAW cells were seeded into the 96 well assay plate 18 hours before the assay.
# (§1) 50,000 cells seeded in a 96-well flat bottom white assay plate were treated with different concentrations (10 uM to 0.01 uM) of compounds for 1 h followed by STING induction with either 30 nM SB 11285 or 10 ug/mL 2′-3′ cGAMP. The cells were then incubated for 20 hours @ 37° C. in CO2 incubator before measuring IRF activation by using Quanti-Luc (InvivoGen). The % inhibition was calculated as 100−{[(luminescence of COI treated well/luminescence of non-COI treated well)/100]×100}. IC50 was calculated by plotting in Xlfit.
# as §1, with “1 μM” for “30 nM”
# THP1-Dual-WT cells (InvivoGen) were plated into 96-well flat bottom plate at 5×10^4 cells/140 μL/well in triplicate. Cells were then treated with diluted antagonist compounds at 10 μL/well for 1 h, followed by treatment with compounds or 2′3′-cGAMP/lipo mixture for 18 h. The levels of IRF activity were determined using Quanti-luc (InvivoGen) and calculated against IRF activity in DMSO-treated cells. IC50 and CC50 values were calculated using Xlfit.
# Sequence of STING (Q86WV6 whole entry): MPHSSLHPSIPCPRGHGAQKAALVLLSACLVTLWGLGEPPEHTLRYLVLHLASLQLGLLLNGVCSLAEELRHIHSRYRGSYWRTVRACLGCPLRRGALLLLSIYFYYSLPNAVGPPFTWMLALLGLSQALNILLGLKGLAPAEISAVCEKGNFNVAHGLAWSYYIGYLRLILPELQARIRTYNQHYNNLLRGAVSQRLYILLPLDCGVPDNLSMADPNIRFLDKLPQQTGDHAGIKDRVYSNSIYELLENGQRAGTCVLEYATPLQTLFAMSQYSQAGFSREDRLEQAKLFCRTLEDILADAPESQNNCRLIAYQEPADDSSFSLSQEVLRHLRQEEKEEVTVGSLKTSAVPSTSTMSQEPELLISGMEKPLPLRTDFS
row,Structure (SMILES),IC50 [nM]
1,"N#CCCOP(O)(=S)OCCCCCCCCCCCCCCCCn1cnc2nc(Cl)nc(Cl)c21 (stereo not drawn) [Compound 90, O-(2-cyanoethyl)O-(16-(2,6-dichloro-7H-purin-7-yl)hexadecyl) O-hydrogen phosphorothioate]",5000 to 10000

# Same assay, conditions: Antagonist Activity of Exemplary Compounds; cell line and agonist not given; read-out: IC50
row,Structure (SMILES),IC50 [nM]
1,"Clc1nc(Cl)c2c(ncn2CCCCn2cnc3nc(Cl)nc(Cl)c32)n1 [Compound 55, 1,4-bis(2,6-dichloro-7H-purin-7-yl)butane]",5000 to 10000
2,"COC(=O)C(C)(C)n1cnc2nc(Cl)nc(Cl)c21 [Compound 56, methyl 2-(2,6-dichloro-7H-purin-7-yl)-2-methylpropanoate]",> 20000
3,"COC(=O)C(CCC(C(=O)OC)n1cnc2nc(Cl)nc(Cl)c21)n1cnc2nc(Cl)nc(Cl)c21 (stereo not drawn) [Compound 57, dimethyl 2,5-bis(2,6-dichloro-7H-purin-7-yl)hexanedioate]",1000 to 5000
4,"Clc1nc(Cl)c2c(ncn2C/C=C\Cn2cnc3nc(Cl)nc(Cl)c32)n1 [Compound 58, (Z)-1,4-bis(2,6-dichloro-7H-purin-7-yl)but-2-ene]",> 20000
5,"Cc1nc2nc(Cl)nc(Cl)c2n1CCCCCCCCCCCCn1c(C)nc2nc(Cl)nc(Cl)c21 [Compound 59, 1,12-bis(2,6-dichloro-8-methyl-7H-purin-7-yl)dodecane]",1 to 1000
6,"COC(=O)CCCCn1c(C)nc2nc(Cl)nc(Cl)c21 [Compound 60, methyl 5-(2,6-dichloro-8-methyl-7H-purin-7-yl)pentanoate]",5000 to 10000
7,"Cc1nc2nc(Cl)nc(Cl)c2n1CCCCCCCCCCn1c(C)nc2nc(Cl)nc(Cl)c21 [Compound 61, 1,10-bis(2,6-dichloro-8-methyl-7H-purin-7-yl)decane]",1 to 1000
8,"Cc1nc2nc(Cl)nc(Cl)c2n1CCCCCCO [Compound 62, 6-(2,6-dichloro-8-methyl-7H-purin-7-yl)hexan-1-ol]",1000 to 5000
9,"Cc1nc2nc(Cl)nc(Cl)c2n1CCCCCCCCn1c(C)nc2nc(Cl)nc(Cl)c21 [Compound 63, 1,8-bis(2,6-dichloro-8-methyl-7H-purin-7-yl)octane]",1 to 1000
10,"Cc1nc2nc(Cl)nc(Cl)c2n1CCCCn1c(C)nc2nc(Cl)nc(Cl)c21 [Compound 64, 1,4-bis(2,6-dichloro-8-methyl-7H-purin-7-yl)butane]",> 20000
11,"Cc1nc2nc(Cl)nc(Cl)c2n1CCCCCCCl [Compound 65, 2,6-dichloro-7-(6-chlorohexyl)-8-methyl-7H-purine]",1000 to 5000
12,"COC(=O)Cn1c(C)nc2nc(Cl)nc(Cl)c21 [Compound 66, methyl 2-(2,6-dichloro-8-methyl-7H-purin-7-yl)acetate]",1000 to 5000
13,"COc1ccc(Cn2c(C)nc3nc(Cl)nc(Cl)c32)cc1 [Compound 67, 2,6-dichloro-7-(4-methoxybenzyl)-8-methyl-7H-purine]",1000 to 5000
14,"CC(=O)N1CCC(Cn2cnc3nc(Cl)nc(Cl)c32)CC1 [Compound 68, 1-(4-((2,6-dichloro-7H-purin-7-yl)methyl)piperidin-1-yl)ethan-1-one]",5000 to 10000
15,"COC(=O)CCCCCCCCCCCCCCCn1c(C)nc2nc(Cl)nc(S(C)(=O)=O)c21 [Compound 69, methyl 16-(2-chloro-8-methyl-6-(methylsulfonyl)-7H-purin-7-yl)hexadecanoate]",1 to 1000
16,"COC(=O)CCCCCCCCCCCCCCCn1c(C#CC2CC2)nc2nc(Cl)nc(Cl)c21 [Compound 70, methyl 16-(2,6-dichloro-8-(cyclopropylethynyl)-7H-purin-7-yl)hexadecanoate]",1000 to 5000
17,"COC(=O)CCCCCCCCCCCCCCCn1c(-c2ccccc2)nc2nc(Cl)nc(Cl)c21 [Compound 71, methyl 16-(2,6-dichloro-8-phenyl-7H-purin-7-yl)hexadecanoate]",1000 to 5000
18,"Cc1nc2nc(Cl)nc(Cl)c2n1CCCCCCCCCCCCCCCC(=O)O [Compound 72, 16-(2,6-dichloro-8-methyl-7H-purin-7-yl)hexadecanoic acid]",10000 to 20000
19,"COC(=O)CCCCCCCCCCCCCCCn1c(C)nc2nc(Cl)nc(S(=O)(=O)C(C)C)c21 [Compound 74, methyl 16-(2-chloro-6-(isopropylsulfonyl)-8-methyl-7H-purin-7-yl)hexadecanoate]",1 to 1000
20,Cc1nc2nc(Cl)nc(Cl)c2n1CCCCCCCCCCCCCCCCO [Compound 75],1 to 1000
21,"Cc1nc2c(Cl)nc(Cl)nc2n1CCCCCCCCCCCCCCCCO [Compound 76, 16-(2,6-dichloro-8-methyl-9H-purin-9-yl)hexadecan-1-ol]",5000 to 10000

row,Structure (SMILES),IC50 [nM]
1,"CCCCCCCCCCCCCCCCn1c(C)nc2nc(Cl)nc(Cl)c21 [Compound 77, 2,6-dichloro-7-hexadecyl-8-methyl-7H-purine]",1 to 1000
2,"CCOC(=O)CCCCCCCCCCCCCCCn1c(C)nc2nc(Cl)nc(Cl)c21 [Compound 78, ethyl 16-(2,6-dichloro-8-methyl-7H-purin-7-yl)hexadecanoate]",1 to 1000
3,"Cc1nc2nc(Cl)nc(Cl)c2n1CCCCCCCCCCCCCCCC(=O)OC(C)C [Compound 79, isopropyl 16-(2,6-dichloro-8-methyl-7H-purin-7-yl)hexadecanoate]",1 to 1000
4,"COC(=O)CCCC(=O)N1CNc2nc(Cl)nc(Cl)c21 [Compound 80, methyl 5-(2,6-dichloro-8,9-dihydro-7H-purin-7-yl)-5-oxopentanoate]",> 20000
5,"Cc1nc2nc(Cl)nc(Cl)c2n1CCCCCCCCCCCCCCCC(=O)OC(C)(C)C [Compound 81, tert-butyl 16-(2,6-dichloro-8-methyl-7H-purin-7-yl)hexadecanoate]",1000 to 5000
6,"Cc1nc2nc(Cl)nc(Cl)c2n1C [Compound 82, 2,6-dichloro-7,8-dimethyl-7H-purine]",5000 to 10000
7,"Cc1nc2c(Cl)nc(Cl)nc2n1C [Compound 83, 2,6-dichloro-8,9-dimethyl-9H-purine]",> 20000
8,"Cc1nc2nc(Cl)nc(Cl)c2n1CCCCCCCCCCCCCCCC(=O)OCCO [Compound 84, 2-hydroxyethyl 16-(2,6-dichloro-8-methyl-7H-purin-7-yl)hexadecanoate]",1000 to 5000
9,"Cc1nc2nc(Cl)nc(Cl)c2n1CCCCCCCCCCCCCCCC(=O)OCC(O)CO (stereo not drawn) [Compound 85, 2,3-dihydroxypropyl 16-(2,6-dichloro-8-methyl-7H-purin-7-yl)hexadecanoate]",1000 to 5000
10,"Cc1nc2nc(Cl)nc(Cl)c2n1CCCCCCCCCCCCCCCC(=O)N1CCNCC1 [Compound 87, 16-(2,6-dichloro-8-methyl-7H-purin-7-yl)-1-(piperazin-1-yl)hexadecan-1-one]",10000 to 20000
11,"O=P(O)(O)OCCCCCCCCCCCCCCCCn1cnc2nc(Cl)nc(Cl)c21 [Compound 88, 16-(2,6-dichloro-7H-purin-7-yl)hexadecyl dihydrogen phosphate]",> 20000
12,"COC(=O)CCCCCCCCCCCCCCCn1c(C(C)C)nc2nc(Cl)nc(Cl)c21 [Compound 89, methyl 16-(2,6-dichloro-8-isopropyl-7H-purin-7-yl)hexadecanoate]",1 to 1000
13,"COC(=O)CCCCCCCCCCCCCCCn1c(CCl)nc2nc(Cl)nc(Cl)c21 [Compound 91, Methyl 16-(2,6-dichloro-8-(chloromethyl)-7H-purin-7-yl)hexadecanoate]",1 to 1000
14,"COCc1nc2nc(Cl)nc(Cl)c2n1CCCCCCCCCCCCCCCC(=O)OC [Compound 92, Methyl 16-(2,6-dichloro-8-(methoxymethyl)-7H-purin-7-yl)hexadecanoate]",1 to 1000
15,"COC(=O)CCCCCCCCCCCCCCCn1c(CO)nc2nc(Cl)nc(Cl)c21 [Compound 93, Methyl 16-(2,6-dichloro-8-(hydroxymethyl)-7H-purin-7-yl)hexadecanoate]",1 to 1000
16,"CNC(=O)CCCCCCCCCCCCCCCn1c(C)nc2nc(Cl)nc(Cl)c21 [Compound 94, 16-(2,6-dichloro-8-methyl-7H-purin-7yl)-N-methylhexadecanamide]",1 to 1000
17,"Cc1nc2nc(Cl)nc(S(=O)(=O)C(C)C)c2n1CCCCCCCCCCCCCCCC(=O)OC(C)C [Compound 96, isopropyl 16-(2-chloro-6-(isopropylsulfonyl)-8-methyl-7H-purin-7-yl)hexadecanoate]",1 to 1000
18,"CCCCCCCCCCCCCCCCn1c(C)nc2nc(Cl)nc(S(=O)(=O)C(C)C)c21 [Compound 97, 2-chloro-7-hexadecyl-6-(isopropylsulfonyl)-8-methyl-7H-purine]",1 to 1000
19,"Cc1nc2nc(Cl)nc(Cl)c2n1CCCCCCCCCCCCCCCC(=O)OCC(C)O (stereo not drawn) [Compound 98, 2-hydroxypropyl 16-(2,6-dichloro-8-methyl-7H-purin-7-yl)hexadecanoate]",1000 to 5000
20,"CCOCCOCCOC(=O)CCCCCCCCCCCCCCCn1c(C)nc2nc(Cl)nc(Cl)c21 [Compound 99, 2-(2-ethoxyethoxy)ethyl 16-(2,6-dichloro-8-methyl-7H-purin-7-yl)hexadecanoate]",1000 to 5000
